According to article PMC8540742, “New N-Substituted-1,2,4-triazole Derivatives of Pyrrolo[3,4-d]pyridazinone with Significant Anti-Inflammatory Activity—Design, Synthesis and Complementary In Vitro, Computational and Spectroscopic Studies” (International Journal of Molecular Sciences, 2021):

What follows are compounds tested against T1, bovine serum albumin (BSA) (Bos taurus, UniProt P02769) (assay: intrinsic fluorescence quenching (ex […] nm)). Conditions: […] K, pH […] BSA; static quenching; n about […]; subdomain IIIA by site markers; double-log.
T1 construct: gene ALB; commercial native serum albumin (Sigma Aldrich, named for the FT-IR work), mature protein 583 residues, no tags
Type: binding

T1 sequence (P02769 25-607): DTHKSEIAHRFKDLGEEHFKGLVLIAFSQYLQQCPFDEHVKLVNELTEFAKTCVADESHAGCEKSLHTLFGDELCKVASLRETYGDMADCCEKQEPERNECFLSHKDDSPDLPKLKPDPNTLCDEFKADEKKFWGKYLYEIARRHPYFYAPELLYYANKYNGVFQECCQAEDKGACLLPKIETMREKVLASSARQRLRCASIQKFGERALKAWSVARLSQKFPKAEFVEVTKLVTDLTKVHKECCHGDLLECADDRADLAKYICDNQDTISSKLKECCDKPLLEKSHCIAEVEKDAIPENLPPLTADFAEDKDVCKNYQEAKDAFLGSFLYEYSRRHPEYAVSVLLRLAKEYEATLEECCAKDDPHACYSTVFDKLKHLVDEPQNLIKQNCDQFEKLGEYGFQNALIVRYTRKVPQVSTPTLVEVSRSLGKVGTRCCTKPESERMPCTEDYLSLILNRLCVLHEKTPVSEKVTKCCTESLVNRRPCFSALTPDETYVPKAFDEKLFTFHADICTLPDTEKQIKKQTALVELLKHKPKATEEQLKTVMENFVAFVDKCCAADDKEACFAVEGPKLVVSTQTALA

Structure (SMILES)	Binding / Kb × 10^4 [dm^3mol^-1]
CCCCn1c(C)c2c(OCc3nn(CN4CCN(c5cccc(C(F)(F)F)c5)CC4)c(=S)n3-c3ccc(OC)cc3)nn(C)c(=O)c2c1C [5c, 6-butyl-1-[[4-(4-methoxyphenyl)-2-[[4-[3-(trifluoromethyl)phenyl]piperazin-1-yl]methyl]-3-thioxo-2H-1,2,4-triazol-5-yl]methoxy]-3,5,7-trimethyl-pyrrolo[3,4-d]pyridazin-4-one]	9.33 × 10^4 dm^3 mol^-1
CCCCn1c(C)c2c(OCc3nnc(SCC(=O)N4CCN(c5ccccc5)CC4)n3-c3ccccc3)nn(C)c(=O)c2c1C [7b, 6-butyl-3,5,7-trimethyl-1-[[4-phenyl-3-[2-oxo-2-(4-phenylpiperazin-1-yl)ethyl]sulfanyl-2H-1,2,4-triazol-5-yl]methoxy]pyrrolo[3,4-d]pyridazin-4-one]	9.33 × 10^4 dm^3 mol^-1
CCCCn1c(C)c2c(OCc3nn(CN4CCN(c5ccc(C)cc5)CC4)c(=S)n3C)nn(C)c(=O)c2c1C [6a, 6-butyl-3,5,7-trimethyl-1-[[4-methyl-2-[[4-[(4-methyl)phenyl]piperazin-1-yl]methyl]-3-thioxo-2H-1,2,4-triazol-5-yl]methoxy]pyrrolo[3,4-d]pyridazin-4-one]	4.90 × 10^4 dm^3 mol^-1
CCCCn1c(C)c2c(OCc3nnc(SCC(=O)N4CCN(c5ccccc5)CC4)n3C)nn(C)c(=O)c2c1C [7a, 6-butyl-3,5,7-trimethyl-1-[[4-methyl-3-[2-oxo-2-(4-phenylpiperazin-1-yl)ethyl]sulfanyl-2H-1,2,4-triazol-5-yl]methoxy]pyrrolo[3,4-d]pyridazin-4-one]	4.68 × 10^4 dm^3 mol^-1
CCCCn1c(C)c2c(OCc3nn(CN4CCN(c5ccccc5)CC4)c(=S)n3C)nn(C)c(=O)c2c1C [4a, 6-butyl-3,5,7-trimethyl-1-[[4-methyl-2-[(4-phenylpiperazin-1-yl)methyl]-3-thioxo-2H-1,2,4-triazol-5-yl]methoxy]pyrrolo[3,4-d]pyridazin-4-one]	8.91 × 10^4 dm^3 mol^-1
CCCCn1c(C)c2c(OCc3nnc(SCC(=O)N4CCN(c5ccccc5)CC4)n3-c3ccc(OC)cc3)nn(C)c(=O)c2c1C [7c, 6-butyl-3,5,7-trimethyl-1-[[4-(4-methoxy)phenyl-3-[2-oxo-2-(4-phenylpiperazin-1-yl)ethyl]sulfanyl-2H-1,2,4-triazol-5-yl]methoxy]pyrrolo[3,4-d]pyridazin-4-one]	9.33 × 10^4 dm^3 mol^-1
CCCCn1c(C)c2c(OCc3nn(CN4CCN(c5cccc(C(F)(F)F)c5)CC4)c(=S)n3-c3ccccc3)nn(C)c(=O)c2c1C [5b, 6-butyl-3,5,7-trimethyl-1-[[4-phenyl-2-[[4-[3-(trifluoromethyl)phenyl]piperazin-1-yl]methyl]-3-thioxo-2H-1,2,4-triazol-5-yl]methoxy]pyrrolo[3,4-d]pyridazin-4-one]	5.75 × 10^4 dm^3 mol^-1
CCCCn1c(C)c2c(OCc3nn(CN4CCN(c5ccc(C)cc5)CC4)c(=S)n3-c3ccc(OC)cc3)nn(C)c(=O)c2c1C [6c, 6-butyl-1-[[4-(4-methoxyphenyl)-2-[[4-[(4-methyl)phenyl]piperazin-1-yl]methyl]-3-thioxo-2H-1,2,4-triazol-5-yl]methoxy]-3,5,7-trimethyl-pyrrolo[3,4-d]pyridazin-4-one]	9.55 × 10^4 dm^3 mol^-1
CCCCn1c(C)c2c(OCc3nn(CN4CCN(c5cccc(C(F)(F)F)c5)CC4)c(=S)n3C)nn(C)c(=O)c2c1C [5a, 6-butyl-3,5,7-trimethyl-1-[[4-methyl-2-[[4-[3-(trifluoromethyl)phenyl]piperazin-1-yl]methyl]-3-thioxo-2H-1,2,4-triazol-5-yl]methoxy]pyrrolo[3,4-d]pyridazin-4-one]	8.13 × 10^4 dm^3 mol^-1
CCCCn1c(C)c2c(OCc3nn(CN4CCN(c5ccccc5)CC4)c(=S)n3-c3ccccc3)nn(C)c(=O)c2c1C [4b, 6-butyl-3,5,7-trimethyl-1-[[4-phenyl-2-[(4-phenylpiperazin-1-yl)methyl]-3-thioxo-2H-1,2,4-triazol-5-yl]methoxy]pyrrolo[3,4-d]pyridazin-4-one]	6.61 × 10^4 dm^3 mol^-1
CCCCn1c(C)c2c(OCc3nn(CN4CCN(c5ccc(C)cc5)CC4)c(=S)n3-c3ccccc3)nn(C)c(=O)c2c1C [6b, 6-butyl-3,5,7-trimethyl-1-[[4-phenyl-2-[[4-[(4-methyl)phenyl]piperazin-1-yl]methyl]-3-thioxo-2H-1,2,4-triazol-5-yl]methoxy]pyrrolo[3,4-d]pyridazin-4-one]	8.13 × 10^4 dm^3 mol^-1
